This note sets out measurements from patent publication US20160257697A1, “THIOPHENE-SUBSTITUTED TETRACYCLIC COMPOUNDS AND METHODS OFUSE THEREOF FOR THE TREATMENT OF VIRAL DISEASES” (priority 2013, published 2016).

Structures are written as SMILES. Like-named read-outs stand apart in the source and are kept apart here.

Common to all, as to experiment: microbe, parasite or virus in culture
What all share (assay type): cell-based, Hepatitis C virus (HCV)
Settings in all cases: Replicon Assay A
In general terms: A replicon is a self-replicating genome or part of one, used to study replication in cells.

For one assay, the system named is HCV replicon 2B. As for the experimental part:
(§1) To measure cell-based anti-HCV activity of compounds of the present invention, two complimentary assays were employed using various replicons. In the first assay (“Replicon Assay A”), replicon cells were seeded at 2000 cells/well in 384-well 384-well flat bottom tissue culture treated clear bottom plate (Corning 3707) in the presence of the test compound. […] The final concentration of DMSO was 0.5%. Fetal bovine serum was 5%, in the assay media. Cells were harvested on day 3 by removing media and washing the cells with a suitable wash buffer. The cells are lysed with the addition of 1× Qiagen lysis buffer (Cat #1062731). The replicon RNA level was measured using real time PCR (TaqMan® EZ RT-PCR, Applied Biosystems 403028) with the following primers and probes: […]
(§2) Cyclophilin RNA was used as endogenous control and was amplified in the same reaction as NS5B (multiplex PCR). The real-time RT-PCR reactions were run on ABI PRISM 7900HT Sequence Detection System using the following program: 50° C. for 2 minutes, 60° C. for 30 minutes, 95° C. for 5 minutes, 40 cycles of 94° C. for 20 sec, 55° C. for 1 minutes.
(§3) The amount of HCV replicon RNA per cell is quantified using a linear regression curve for a known nanogram (ng) amount of HCV replicon total RNA. This is established by plotting the Cycle Threshold values (Ct) from the Neo probe and primer set versus the log (ng) for each HCV replicon total RNA standard. The amount of HCV RNA for each replicon sample is calculated by taking the sample's Ct value, minus the line intercept, divided by the slope of the line. Similarly, the amount of Cyclophilin mRNA per cell is also quantified using a linear regression curve for a known nanogram (ng) amount of HCV replicon total RNA. Again, this is established by plotting the Cycle Threshold values (Ct) from the Cyclophilin probe and primer set versus the log (ng) for each HCV replicon total RNA standard.
(§4) Data for replicons 1A, 1AY93H and 2B were obtained using Replicon Assay A and data for replicons 1AQ30D and 1B were obtained using Replicon Assay B.

For the next assay, the system named is HCV replicon 1A. As for the experimental part:
as §1, §2, §3, §4

A further assay relates to HCV replicon 1AY93H. As for the experimental part: as §1, §2, §3, §4
Setting [1] is: read-out: 1A Y93H IC50, replicon 1AY93H.
Setting [2] is: read-out: 2B IC50, HCV replicon 2B.
The mark [3] stands for this setting: Hepatitis C virus, HCV replicon 1A.

The IC50 is the concentration that inhibits the measured activity by half. As for `[2H]C(C)(C)C(NC(=O)OC)C(=O)N1CCC[C@H]1c1ncc(-c2cc(F)c3c(c2)OC(c2ccc(C4CC4)s2)n2c-3cc3cc(-c4cnc([C@@H]5CCCN5C(=O)[C@@H](NC(=O)OC)C(C)C)[nH]4)ccc32)[nH]1` (single isomer, unassigned) [Compound 30], the IC50 in the assay with HCV replicon 2B (read-out: 2B IC50, replicon 2B) worked out at 33.3 nM; with HCV replicon 1A (replicon 1A), 51.3 pM. For `COC(=O)N[C@H](C(=O)N1CCC[C@H]1c1ncc(-c2cc(F)c3c(c2)OC(c2ccc(CC4CC4)s2)n2c-3cc3cc(-c4cnc([C@@H]5CCCN5C(=O)[C@@H](NC(=O)OC)C(C)C)[nH]4)ccc32)[nH]1)C(C)C` (single isomer, unassigned) [Compound 53], the half-inhibitory concentration (IC50) was determined as 1.87 nM in the assay with HCV replicon 1AY93H (Hepatitis C virus, read-out: 1A Y93H IC50 (nM), replicon 1AY93H) and 1.95 nM in the assay on HCV replicon 2B (Hepatitis C virus, read-out: 2B IC50 (nM), replicon 2B). On to `COC(=O)N[C@H](C(=O)N1CCC[C@H]1c1ncc(-c2cc(F)c3c(c2)OC(c2sc(C4CC4)cc2F)n2c-3cc3cc(-c4cnc([C@@H]5CCCN5C(=O)[C@@H](NC(=O)OC)C(C)C)[nH]4)ccc32)[nH]1)C(C)C` (single isomer, unassigned) [Compound 66], for which the IC50 with HCV replicon 1AY93H (setting [1]) came out at 0.13 nM; in the assay with HCV replicon 2B (read-out: 2B IC50, replicon 2B) it was 0.23 nM. Consider `COC(=O)NC(C(=O)N1CCC[C@H]1c1ncc(-c2cc(F)c3c(c2)OC(c2ccc(C4CC4)s2)n2c-3cc3cc(-c4cnc([C@@H]5CCCN5C(=O)[C@@H](NC(=O)OC)C(C)C)[nH]4)ccc32)[nH]1)C(C)(C)F` (single isomer, unassigned) [Compound 68], for which the IC50 with HCV replicon 1AY93H (setting [1]) came to 0.12 nM; in the assay with HCV replicon 2B (read-out: 2B IC50, replicon 2B), 1.12 nM. Take `COC(=O)N[C@H](C(=O)N1CCC[C@H]1c1ncc(-c2cc(F)c3c(c2)OC(c2ccc(C4CC4(F)F)s2)n2c-3cc3cc(-c4cnc([C@@H]5CCCN5C(=O)[C@@H](NC(=O)OC)C(C)C)[nH]4)ccc32)[nH]1)C(C)C` (single isomer, unassigned) [Compound 118]: the 50% inhibitory concentration (IC50) was determined as 0.97 nM in the assay on HCV replicon 2B (read-out: 2B IC50, replicon 2B) and 1.2 pM in the assay on HCV replicon 1A (Hepatitis C virus, replicon 1A). On to `COC(=O)N[C@H](C(=O)N1CCC[C@H]1c1ncc(-c2cc(F)c3c(c2)OC(c2ccc(C(CF)CF)s2)n2c-3cc3cc(-c4cnc([C@@H]5CCCN5C(=O)[C@@H](NC(=O)OC)C(C)C)[nH]4)ccc32)[nH]1)C(C)C` (single isomer, unassigned) [Compound 121], for which the IC50 came out at 0.17 nM in the assay on HCV replicon 2B (read-out: 2B IC50, replicon 2B) and 1.2 pM with HCV replicon 1A (replicon 1A). Taken in the same sequence, the figures for `COC(=O)N[C@H](C(=O)N1CCC[C@H]1c1ncc(-c2cc(F)c3c(c2)OC(c2ccc(C(C)C(F)(F)F)s2)n2c-3cc3cc(-c4cnc([C@@H]5CCCN5C(=O)[C@@H](NC(=O)OC)C(C)C)[nH]4)ccc32)[nH]1)C(C)C` (single isomer, unassigned) [Compound 133] were 0.15 nM and 2 pM. In the case of `COC(=O)NC(C(=O)N1CCC[C@H]1c1ncc(-c2ccc3c(c2)cc2n3C(c3ccc(C4CC4)s3)Oc3cc(-c4cnc([C@@H]5CCCN5C(=O)[C@@H](NC(=O)OC)C(C)C)[nH]4)cc(F)c3-2)[nH]1)C1CCOC2(CC2)C1` (single isomer, unassigned) [Compound 176], the concentration for half-maximal inhibition (IC50) with HCV replicon 2B (read-out: 2B IC50, replicon 2B) worked out at 0.046 nM; in the assay on HCV replicon 1A (Hepatitis C virus, replicon 1A), 1.1 pM. For the compound `COC(=O)NC(C(=O)N1CCC[C@H]1c1ncc(-c2ccc3c(c2)cc2n3C(c3ccc(C4CC4)s3)Oc3cc(-c4cnc([C@@H]5CCCN5C(=O)[C@@H](NC(=O)OC)C(C)C)[nH]4)cc(F)c3-2)[nH]1)C1CCOC2(CC2)C1` (single isomer, unassigned) [Compound 177], the IC50 in the assay on HCV replicon 2B (read-out: 2B IC50, replicon 2B) is 0.016 nM; in the assay with HCV replicon 1A (replicon 1A) it was 1.4 pM. `COC(=O)NC(C(=O)N1CCC[C@H]1c1ncc(-c2ccc3c(c2)cc2n3C(c3ccc(C4CC4)s3)Oc3cc(-c4cnc([C@@H]5CCCN5C(=O)[C@@H](NC(=O)OC)C(C)C)[nH]4)cc(F)c3-2)[nH]1)C1CCOC2(CC2)C1` (single isomer, unassigned) [Compound 178]: the IC50 in the assay on HCV replicon 2B (read-out: 2B IC50, replicon 2B) came out at 3.4 nM; with HCV replicon 1A (replicon 1A) it was 1.7 pM. In the case of `COC(=O)NC(C(=O)N1CCC[C@H]1c1ncc(-c2ccc3c(c2)cc2n3C(c3ccc(C4CC4)s3)Oc3cc(-c4cnc([C@@H]5CCCN5C(=O)[C@@H](NC(=O)OC)C(C)C)[nH]4)cc(F)c3-2)[nH]1)C1CCOC2(CC2)C1` (single isomer, unassigned) [Compound 179], the half-maximal inhibitory concentration (IC50) stood at 4.63 nM with HCV replicon 2B (read-out: 2B IC50, replicon 2B) and 1.2 pM in the assay on HCV replicon 1A (replicon 1A).

Consider `COC(=O)NC(C(=O)N1[C@@H]2C[C@@H]2C[C@H]1c1ncc(-c2ccc3c(c2)cc2n3C(c3ccc(C(F)F)s3)Oc3cc(-c4cnc([C@@H]5CCCN5C(=O)[C@@H](NC(=O)OC)C(C)C)[nH]4)cc(F)c3-2)[nH]1)C1C[C@@H](C)O[C@@H](C)C1` (single isomer, unassigned) [Compound 286], for which the half-maximal inhibitory concentration (IC50) with HCV replicon 2B (read-out: 2B IC50, replicon 2B) turned out to be 0.018 nM; in the assay on HCV replicon 1A (Hepatitis C virus, replicon 1A) it was 1 pM.

`COC(=O)NC(C(=O)N1CCC[C@H]1c1ncc(-c2cc(F)c3c(c2)OC(c2ccc(C4CC4)s2)n2c-3cc3cc(-c4cnc([C@@H]5CCCN5C(=O)C(NC(=O)OC)C5C[C@@H](C)O[C@@H](C)C5)[nH]4)ccc32)[nH]1)C1C[C@@H](C)O[C@@H](C)C1` (single isomer, unassigned) [Compound 302] came in with an IC50 with HCV replicon 1A (replicon 1A) of more than 13000 pM.

Consider `COC(=O)N[C@H](C(=O)N1CCC[C@H]1c1ncc(-c2cc(F)c3c(c2)OC(c2ccc(C(C)CF)s2)n2c-3cc3cc(-c4cnc([C@@H]5CCCN5C(=O)[C@@H](NC(=O)OC)C(C)C)[nH]4)ccc32)[nH]1)C(C)C` (single isomer, unassigned) [Compound 333], for which the IC50 stood at 0.0314 nM in the assay with HCV replicon 2B (read-out: 2B IC50, replicon 2B) and 1 pM in the assay with HCV replicon 1A (replicon 1A).

Regarding `COC(=O)N[C@H](C(=O)N1CCC[C@H]1c1ncc(-c2cc(F)c3c(c2)OC(c2cc4c(s2)C(C)(C)CC4)n2c-3cc3cc(-c4cnc([C@@H]5CCCN5C(=O)[C@@H](NC(=O)OC)C(C)C)[nH]4)ccc32)[nH]1)C(C)C` (single isomer, unassigned) [Compound 391], it took 3.5 pM to reach half-maximal inhibition in the assay on HCV replicon 1A (Hepatitis C virus, replicon 1A) (IC50).

Regarding `COC(=O)NC(C(=O)N1CCC[C@H]1c1ncc(-c2ccc3c(c2)cc2n3C(c3ccc(C4CC4)s3)Oc3cc(-c4cnc([C@@H]5CCCN5C(=O)[C@@H](NC(=O)OC)C(C)C)[nH]4)cc(F)c3-2)[nH]1)C1CCO[C@@H](C)C1` (single isomer, unassigned) [Compound 401], the IC50 in the assay with HCV replicon 2B (read-out: 2B IC50, replicon 2B) was 0.0064 nM; in the assay with HCV replicon 1A (replicon 1A), 1.8 pM. Taken in the same sequence, the figures for `COC(=O)NC(C(=O)N1CCC[C@H]1c1ncc(-c2ccc3c(c2)cc2n3C(c3ccc(C4CC4)s3)Oc3cc(-c4cnc([C@@H]5CCCN5C(=O)[C@@H](NC(=O)OC)C(C)C)[nH]4)cc(F)c3-2)[nH]1)C1CCO[C@@H](C)C1` (single isomer, unassigned) [Compound 402] were 0.0054 nM and 3.4 pM. As to `COCc1ccc(C2Oc3cc(-c4cnc([C@@H]5CCCN5C(=O)[C@@H](NC(=O)OC)C(C)C)[nH]4)cc(F)c3-c3cc4cc(-c5c[nH]c([C@@H]6CCCN6C(=O)[C@@H](NC(=O)OC)C(C)C)n5)ccc4n32)s1` (single isomer, unassigned) [Compound 512], the concentration for half-maximal inhibition (IC50) with HCV replicon 2B (setting [2]) is 0.15 nM; in the assay with HCV replicon 1A (HCV replicon 1A), 2.82 pM. As for `COC(=O)N[C@H](C(=O)N1CCC[C@H]1c1ncc(-c2cc(F)c3c(c2)OC(c2ccc(C4CCCCC4)s2)n2c-3cc3cc(-c4cnc([C@@H]5CCCN5C(=O)[C@@H](NC(=O)OC)C(C)C)[nH]4)ccc32)[nH]1)C(C)C` (single isomer, unassigned) [Compound 528], the IC50 is 8.81 nM in the assay with HCV replicon 2B (setting [2]) and 8.83 pM with HCV replicon 1A (setting [3]). Turning to `COCc1ccc(C2Oc3cc(-c4cnc([C@@H]5CCCN5C(=O)[C@@H](NC(=O)OC)C(C)C)[nH]4)cc(F)c3-c3cc4cc(-c5cnc([C@@H]6CCCN6C(=O)[C@@H](NC(=O)OC)[C@@H]6C[C@@H](C)O[C@@H](C)C6)[nH]5)ccc4n32)s1` (single isomer, unassigned) [Compound 534], the IC50 was 0.02 nM in the assay with HCV replicon 2B (setting [2]) and 6.92 pM in the assay on HCV replicon 1A (HCV replicon 1A). `COC(=O)NC(C(=O)N1CCC[C@H]1c1ncc(-c2ccc3c(c2)cc2n3C(c3ccc(C4CC4)s3)Oc3cc(-c4cnc([C@@H]5C[C@H]6C[C@H]6N5C(=O)[C@@H](NC(=O)OC)C(C)C)[nH]4)cc(F)c3-2)[nH]1)C1C[C@@H](C)O[C@@H](C)C1` (single isomer, unassigned) [Compound 536]: the figures for the IC50 in the assay on HCV replicon 2B (setting [2]) and in the assay with HCV replicon 1A (setting [3]) were 0.0219 nM and 2.72 pM, respectively. Taken in the same sequence, the figures for `COC(=O)NC(C(=O)N1[C@@H]2C[C@@H]2C[C@H]1c1ncc(-c2ccc3c(c2)cc2n3C(c3cc4ccccc4s3)Oc3cc(-c4cnc([C@@H]5CCCN5C(=O)[C@@H](NC(=O)OC)C(C)C)[nH]4)cc(F)c3-2)[nH]1)C1C[C@@H](C)O[C@@H](C)C1` (single isomer, unassigned) [Compound 647] were 0.153 nM and 2.6 pM.
